Target: T1, WIZ protein (HiBit-WIZ fusion protein) (Homo sapiens, UniProt O95785+Q96SW2)
T1 construct: expressed in transfected cells
Assay: Quantification of WIZ protein levels in HiBit tag fusion protein assay (WIZ HiBit assay in 293T cells)
Type: cell-based
Conditions: for Dmax at 25 µM / remaining activity at 25 µM: HEK-293T; for Dmax at 25 µM: read-out: % degradation of WIZ (100 − Amax); for remaining activity at 25 µM: read-out: WIZ Amax; for DC50: WIZ HiBit assay in 293T cells, 10-point, 5-fold dose response, highest concentration 25 μM, about 18 hours, read-out: WIZ AC50
Summary of the method: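 HiBit-tagged WIZ (N-terminal tag, HSVTK promoter) stably expressed single-copy in 293T cells; 10-point 1:5 compound series, top 25 μM, ~18 h at 37 °C. Lytic HiBit/LgBit luminescence read; Amax = curve-fitted % WIZ-HiBit remaining at 25 μM, DMSO normalized to 100%.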

[1] = 100 − Amax, at 25 uM, 293T cells
[2] = DMSO-normalized, curve-fitted percentage of WIZ-HiBit remaining at 25 uM, 293T cells

T1 sequence (O95785 whole entry, the tested form may be a part): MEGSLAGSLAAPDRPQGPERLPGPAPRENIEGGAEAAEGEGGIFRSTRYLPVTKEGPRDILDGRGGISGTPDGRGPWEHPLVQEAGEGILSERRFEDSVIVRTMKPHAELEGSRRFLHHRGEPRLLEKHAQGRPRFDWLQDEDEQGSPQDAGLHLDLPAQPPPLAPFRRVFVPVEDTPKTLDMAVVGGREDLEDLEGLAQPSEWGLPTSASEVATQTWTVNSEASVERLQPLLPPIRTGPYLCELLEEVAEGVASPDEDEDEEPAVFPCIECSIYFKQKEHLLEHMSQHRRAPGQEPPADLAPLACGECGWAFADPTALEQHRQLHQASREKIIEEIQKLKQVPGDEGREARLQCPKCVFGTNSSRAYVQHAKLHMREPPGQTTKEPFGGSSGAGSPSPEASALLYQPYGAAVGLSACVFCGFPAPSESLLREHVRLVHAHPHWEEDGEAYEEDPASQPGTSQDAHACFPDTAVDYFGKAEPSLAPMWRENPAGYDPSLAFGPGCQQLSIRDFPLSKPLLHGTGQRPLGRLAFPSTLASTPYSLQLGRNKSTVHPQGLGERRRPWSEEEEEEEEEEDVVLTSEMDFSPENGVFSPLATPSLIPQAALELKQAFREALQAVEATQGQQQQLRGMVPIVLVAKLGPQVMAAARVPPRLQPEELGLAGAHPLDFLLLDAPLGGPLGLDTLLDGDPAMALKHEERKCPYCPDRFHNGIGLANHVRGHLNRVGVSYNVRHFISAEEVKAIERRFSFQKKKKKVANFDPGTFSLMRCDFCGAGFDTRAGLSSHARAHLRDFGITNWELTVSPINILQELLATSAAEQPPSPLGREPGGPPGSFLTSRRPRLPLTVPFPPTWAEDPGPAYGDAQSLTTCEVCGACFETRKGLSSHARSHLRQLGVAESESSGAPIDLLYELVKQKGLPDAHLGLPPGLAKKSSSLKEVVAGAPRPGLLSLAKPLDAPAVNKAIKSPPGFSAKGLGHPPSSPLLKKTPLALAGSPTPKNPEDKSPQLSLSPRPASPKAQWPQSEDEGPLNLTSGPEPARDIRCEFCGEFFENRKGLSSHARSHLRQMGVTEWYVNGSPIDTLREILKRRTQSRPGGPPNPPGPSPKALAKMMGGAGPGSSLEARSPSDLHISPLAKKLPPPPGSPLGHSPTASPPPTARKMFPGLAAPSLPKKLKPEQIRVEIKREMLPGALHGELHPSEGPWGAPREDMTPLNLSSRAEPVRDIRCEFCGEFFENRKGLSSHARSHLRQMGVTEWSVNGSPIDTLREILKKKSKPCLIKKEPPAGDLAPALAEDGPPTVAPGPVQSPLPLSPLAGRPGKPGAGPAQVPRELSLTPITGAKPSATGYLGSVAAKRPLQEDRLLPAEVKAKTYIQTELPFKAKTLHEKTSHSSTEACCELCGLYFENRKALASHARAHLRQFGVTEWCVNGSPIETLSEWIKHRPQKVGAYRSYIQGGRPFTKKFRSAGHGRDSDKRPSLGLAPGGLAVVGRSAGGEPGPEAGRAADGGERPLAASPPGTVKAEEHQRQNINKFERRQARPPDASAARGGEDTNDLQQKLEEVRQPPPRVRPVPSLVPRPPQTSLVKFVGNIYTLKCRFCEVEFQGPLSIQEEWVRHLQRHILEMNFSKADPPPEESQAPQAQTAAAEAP
T1 sequence (Q96SW2 whole entry, the tested form may be a part): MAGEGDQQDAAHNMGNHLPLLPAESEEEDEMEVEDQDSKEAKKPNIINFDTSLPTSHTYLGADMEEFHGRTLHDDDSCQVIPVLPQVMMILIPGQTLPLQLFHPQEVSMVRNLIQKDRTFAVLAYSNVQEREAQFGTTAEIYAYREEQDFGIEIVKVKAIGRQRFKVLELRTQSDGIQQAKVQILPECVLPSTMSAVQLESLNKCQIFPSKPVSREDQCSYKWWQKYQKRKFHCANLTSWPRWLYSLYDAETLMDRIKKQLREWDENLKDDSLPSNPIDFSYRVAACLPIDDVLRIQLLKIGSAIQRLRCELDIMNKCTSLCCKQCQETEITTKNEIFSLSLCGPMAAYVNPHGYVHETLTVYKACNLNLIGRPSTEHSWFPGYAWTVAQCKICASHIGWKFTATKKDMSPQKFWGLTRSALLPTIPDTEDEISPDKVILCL
T1 sequence (Q16531 whole entry partner, the tested form may be a part): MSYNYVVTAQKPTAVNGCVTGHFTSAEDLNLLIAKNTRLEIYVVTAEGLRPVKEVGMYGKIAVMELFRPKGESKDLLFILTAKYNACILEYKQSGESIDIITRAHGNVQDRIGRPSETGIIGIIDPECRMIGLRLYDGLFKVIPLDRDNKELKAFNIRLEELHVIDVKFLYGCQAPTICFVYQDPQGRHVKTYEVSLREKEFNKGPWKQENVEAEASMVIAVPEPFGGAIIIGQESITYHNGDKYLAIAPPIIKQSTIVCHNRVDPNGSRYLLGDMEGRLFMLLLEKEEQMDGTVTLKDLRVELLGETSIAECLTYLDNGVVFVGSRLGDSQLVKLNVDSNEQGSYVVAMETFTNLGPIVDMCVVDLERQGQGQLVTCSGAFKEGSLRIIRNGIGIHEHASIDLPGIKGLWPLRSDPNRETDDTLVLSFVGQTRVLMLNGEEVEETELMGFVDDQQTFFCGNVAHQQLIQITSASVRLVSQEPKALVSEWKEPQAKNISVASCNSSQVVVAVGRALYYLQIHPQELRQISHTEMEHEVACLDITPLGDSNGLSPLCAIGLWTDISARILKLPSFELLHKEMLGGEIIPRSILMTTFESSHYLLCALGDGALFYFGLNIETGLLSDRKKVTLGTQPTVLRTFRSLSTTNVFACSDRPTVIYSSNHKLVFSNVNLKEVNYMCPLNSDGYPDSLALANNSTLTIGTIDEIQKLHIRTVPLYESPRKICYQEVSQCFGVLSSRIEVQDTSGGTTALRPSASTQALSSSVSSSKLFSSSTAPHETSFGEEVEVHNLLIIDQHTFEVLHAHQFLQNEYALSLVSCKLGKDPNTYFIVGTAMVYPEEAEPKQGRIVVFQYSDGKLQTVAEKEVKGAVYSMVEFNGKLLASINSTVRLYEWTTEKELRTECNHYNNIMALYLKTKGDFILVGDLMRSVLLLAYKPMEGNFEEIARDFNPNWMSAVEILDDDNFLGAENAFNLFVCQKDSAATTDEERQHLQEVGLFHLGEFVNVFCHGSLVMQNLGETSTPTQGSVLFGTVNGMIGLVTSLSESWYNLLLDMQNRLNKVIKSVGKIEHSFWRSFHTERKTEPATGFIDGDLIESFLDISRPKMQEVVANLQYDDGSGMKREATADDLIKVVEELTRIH

Compound	Dmax at 25 µM [1] [%]	remaining activity at 25 µM [2] [%]	DC50 [µM]	% degradation of WIZ (100 − Amax) [1] [%]	WIZ Amax [2] [%]
O=C1CCN(c2cnn3ccc(CC4CCN(CC(=O)N5CCCCC5)CC4)cc23)C(=O)N1 [Example 52, 1-(5-((1-(2-oxo-2-(piperidin-1-yl)ethyl)piperidin-4-yl)methyl)pyrazolo[1,5-a]pyridin-3-yl)dihydropyrimidine-2,4(1H,3H)-dione]	59	41	0.987	–	–
Cc1cn(-c2cnn3ccc(CN4CCN(CC5CC5)[C@@H](C)C4)cc23)c(=O)[nH]c1=O [Example 362, (S)-1-(5-((4-(cyclopropylmethyl)-3-methylpiperazin-1-yl)methyl)pyrazolo[1,5-a]pyridin-3-yl)-5-methylpyrimidine-2,4(1H,3H)-dione]	84	16	0.765	–	–
O=C1CCN(c2cnn3ccc(CN4CCN(Cc5ccc(F)cc5)CC4)cc23)C(=O)N1 [Example 168]	56	44	0.127	–	–
O=C1CCN(c2cnn3ccc(CC4CCN(Cc5ccc(C(F)(F)F)nc5)CC4)cc23)C(=O)N1 [Example 54, 1-(5-((1-((6-(trifluoromethyl)pyridin-3-yl)methyl)piperidin-4-yl)methyl)pyrazolo[1,5-a]pyridin-3-yl)dihydropyrimidine-2,4(1H,3H)-dione]	64	36	0.044	–	–
O=C1CCN(c2cnn3ccc(CN4CCN(CC5CCC(F)(F)CC5)CC4)cc23)C(=O)N1 [Example 157]	83	17	0.022	–	–
CC(C)C(C)N1CCN(Cc2ccn3ncc(N4CCC(=O)NC4=O)c3c2)CC1 (stereo not drawn) [Example 240, 1-(5-((4-(3-methylbutan-2-yl)piperazin-1-yl)methyl)pyrazolo[1,5-a]pyridin-3-yl)dihydropyrimidine-2,4(1H,3H)-dione]	80	20	0.025	–	–
Cn1nccc1CN1CCN(Cc2ccn3ncc(N4CCC(=O)NC4=O)c3c2)CC1 [Example 195, 1-(5-((4-((1-methyl-1H-pyrazol-5-yl)methyl)piperazin-1-yl)methyl)pyrazolo[1,5-a]pyridin-3-yl)dihydropyrimidine-2,4(1H,3H)-dione]	48	52	2.05	–	–
CC(C)(O)CN1CCN(Cc2ccn3ncc(N4CCC(=O)NC4=O)c3c2)CC1 [Example 183, 1-(5-((4-(2-hydroxy-2-methylpropyl)piperazin-1-yl)methyl)pyrazolo[1,5-a]pyridin-3-yl)dihydropyrimidine-2,4(1H,3H)-dione]	65	35	0.468	–	–
C[C@H]1CN(Cc2ccn3ncc(N4CCC(=O)NC4=O)c3c2)CCN1C1CC2(COC2)C1 [Example 332]	49	51	22	–	–
O=C1CCN(c2cnn3ccc(CC4CCN(S(=O)(=O)C5CCCCC5)CC4)cc23)C(=O)N1 [Example 81]	92	8	0.015	–	–
Cc1cncc(CN2CCC(Cc3ccn4ncc(N5CCC(=O)NC5=O)c4c3)CC2)c1 [Example 36, 1-(5-((1-((5-methylpyridin-3-yl)methyl)piperidin-4-yl)methyl)pyrazolo[1,5-a]pyridin-3-yl)dihydropyrimidine-2,4(1H,3H)-dione]	72	28	0.068	–	–
O=C1CCN(c2cnn3ccc(CC4CCCNCC4)cc23)C(=O)N1 (stereo not drawn) [Example 269, 1-(5-(azepan-4-ylmethyl)pyrazolo[1,5-a]pyridin-3-yl)dihydropyrimidine-2,4(1H,3H)-dione]	49	51	1.02	–	–
O=C1CCN(c2cnn3ccc(CC4CCN(Cc5cc(F)cc(F)c5)CC4)cc23)C(=O)N1 [Example 44, 1-(5-((1-(3,5-difluorobenzyl)piperidin-4-yl)methyl)pyrazolo[1,5-a]pyridin-3-yl)dihydropyrimidine-2,4(1H,3H)-dione]	70	30	0.043	–	–
O=C1CCN(c2cnn3ccc(CN4CCN(CC5CCCCC5)[C@@H](C(F)F)C4)cc23)C(=O)N1 [Example 246, (R)-1-(5-((4-(cyclohexylmethyl)-3-(difluoromethyl)piperazin-1-yl)methyl)pyrazolo[1,5-a]pyridin-3-yl)dihydropyrimidine-2,4(1H,3H)-dione]	0	100	> 25	–	–
C[C@H]1CC(F)(Cc2ccn3ncc(N4CCC(=O)NC4=O)c3c2)CCN1C1COC1 (single isomer, unassigned) [Example 311]	–	–	0.31	78	22
CC(C)S(=O)(=O)N1CCN(Cc2ccn3ncc(N4CCC(=O)NC4=O)c3c2)CC1 [Example 185, 1-(5-((4-(isopropylsulfonyl)piperazin-1-yl)methyl)pyrazolo[1,5-a]pyridin-3-yl)dihydropyrimidine-2,4(1H,3H)-dione]	47	53	0.582	–	–
O=C1CCN(c2cnn3ccc(CC4CCN(Cc5cccc(OC(F)(F)F)c5)CC4)cc23)C(=O)N1 [Example 27, 1-(5-((1-(3-(trifluoromethoxy)benzyl)piperidin-4-yl)methyl)pyrazolo[1,5-a]pyridin-3-yl)dihydropyrimidine-2,4(1H,3H)-dione]	76	24	0.046	–	–

Further lines, results first:

Dmax at 25 µM [1] [%]	remaining activity at 25 µM [2] [%]	DC50 [µM]	% degradation of WIZ (100 − Amax) [1] [%]	WIZ Amax [2] [%]	Compound
63	37	0.702	–	–	CN1CCCC(Cc2ccn3ncc(N4CCC(=O)NC4=O)c3c2)CC1 (stereo not drawn) [Example 271, 1-(5-((1-methylazepan-4-yl)methyl)pyrazolo[1,5-a]pyridin-3-yl)dihydropyrimidine-2,4(1H,3H)-dione]
80	20	0.046	–	–	CO[C@H]1C[C@@H](CN2CC[C@@H](Cc3ccn4ncc(N5CCC(=O)NC5=O)c4c3)C[C@@H]2C)C1 [Example 303, 1-(5-(((2S,4R)-1-(((1s,3R)-3-methoxycyclobutyl)methyl)-2-methylpiperidin-4-yl)methyl)pyrazolo[1,5-a]pyridin-3-yl)dihydropyrimidine-2,4(1H,3H)-dione]
83	17	0.004	–	–	O=C1CCN(c2cnn3ccc(CC4CCN(C5COC5)CC4)cc23)C(=O)N1 [Example 281, 1-(5-((1-(oxetan-3-yl)piperidin-4-yl)methyl)pyrazolo[1,5-a]pyridin-3-yl)dihydropyrimidine-2,4(1H,3H)-dione]
88	12	0.004	–	–	C[C@@H]1CC(CN2CCC(Cc3ccn4ncc(N5CCC(=O)NC5=O)c4c3)CC2)C[C@H](C)O1 (stereo partly drawn) [Example 113]
64	36	0.166	–	–	CC1(CN2CCC(Cc3ccn4ncc(N5CCC(=O)NC5=O)c4c3)CC2)COC1 [Example 118, 1-(5-((1-((3-methyloxetan-3-yl)methyl)piperidin-4-yl)methyl)pyrazolo[1,5-a]pyridin-3-yl)dihydropyrimidine-2,4(1H,3H)-dione]
81	19	0.098	–	–	C[C@@H]1C[C@H](Cc2ccn3ncc(N4CCC(=O)NC4=O)c3c2)CCN1CC1CCOCC1 [Example 75]
76	24	0.203	–	–	C[C@H]1C[C@H](Cc2ccn3ncc(N4CCC(=O)NC4=O)c3c2)CCN1CC1CCO1 (stereo partly drawn) [Example 277, 1-(5-(((2S,4R)-2-methyl-1-(oxetan-2-ylmethyl)piperidin-4-yl)methyl)pyrazolo[1,5-a]pyridin-3-yl)dihydropyrimidine-2,4(1H,3H)-dione]
36	64	1.32	–	–	O=C1CCN(c2cnn3ccc(CC4CCN(CC5CCC5)C4)cc23)C(=O)N1 (stereo not drawn) [Example 130]
91	9	0.02	–	–	O=C1CCN(c2cnn3ccc(CC4CCN(CC5CCCCC5)CC4)cc23)C(=O)N1 [Example 1, 1-(5-((1-(cyclohexylmethyl)piperidin-4-yl)methyl)pyrazolo[1,5-a]pyridin-3-yl)dihydropyrimidine-2,4(1H,3H)-dione]
86	14	0.033	–	–	CO[C@H]1CC[C@@H](CN2CCN(Cc3ccn4ncc(N5CCC(=O)NC5=O)c4c3)C[C@@H]2C)CC1 [Example 211, 1-(5-(((S)-4-(((1s,4R)-4-methoxycyclohexyl)methyl)-3-methylpiperazin-1-yl)methyl)pyrazolo[1,5-a]pyridin-3-yl)dihydropyrimidine-2,4(1H,3H)-dione]
77	23	1.07	–	–	CCN1CCC(Cc2ccn3ncc(N4CCC(=O)NC4=O)c3c2)CC1 [Example 24, 1-(5-((1-ethylpiperidin-4-yl)methyl)pyrazolo[1,5-a]pyridin-3-yl)dihydropyrimidine-2,4(1H,3H)-dione]
68	32	0.283	–	–	CC(C)(O)CN1CCC(Cc2ccn3ncc(N4CCC(=O)NC4=O)c3c2)CC1 [Example 106, 1-(5-((1-(2-hydroxy-2-methylpropyl)piperidin-4-yl)methyl)pyrazolo[1,5-a]pyridin-3-yl)dihydropyrimidine-2,4(1H,3H)-dione]
